Experimental findings from ChEMBL document CHEMBL1131994, “Discovery of subtype-selective NMDA receptor ligands: 4-benzyl-1-piperidinylalkynylpyrroles, pyrazoles and imidazoles as NR1A/2B antagonists” (Bioorg Med Chem Lett, 1999) are described below.

Usually IC50 stands for the concentration at which inhibition is half-maximal. The low end stands for greater potency in that assay, the high end for weaker potency in that assay.

The target in assay [1] is T1, Glutamate NMDA receptor; Grin1/Grin2b (Rattus norvegicus, UniProt P35439+Q00960). Description: Inhibition of NMDA response at NR1A/2B receptor expressed in Xenopus oocytes. It is filed as cell-based, Oocyte.
Target sequence in this assay (Q00960 whole entry, other chains not shown): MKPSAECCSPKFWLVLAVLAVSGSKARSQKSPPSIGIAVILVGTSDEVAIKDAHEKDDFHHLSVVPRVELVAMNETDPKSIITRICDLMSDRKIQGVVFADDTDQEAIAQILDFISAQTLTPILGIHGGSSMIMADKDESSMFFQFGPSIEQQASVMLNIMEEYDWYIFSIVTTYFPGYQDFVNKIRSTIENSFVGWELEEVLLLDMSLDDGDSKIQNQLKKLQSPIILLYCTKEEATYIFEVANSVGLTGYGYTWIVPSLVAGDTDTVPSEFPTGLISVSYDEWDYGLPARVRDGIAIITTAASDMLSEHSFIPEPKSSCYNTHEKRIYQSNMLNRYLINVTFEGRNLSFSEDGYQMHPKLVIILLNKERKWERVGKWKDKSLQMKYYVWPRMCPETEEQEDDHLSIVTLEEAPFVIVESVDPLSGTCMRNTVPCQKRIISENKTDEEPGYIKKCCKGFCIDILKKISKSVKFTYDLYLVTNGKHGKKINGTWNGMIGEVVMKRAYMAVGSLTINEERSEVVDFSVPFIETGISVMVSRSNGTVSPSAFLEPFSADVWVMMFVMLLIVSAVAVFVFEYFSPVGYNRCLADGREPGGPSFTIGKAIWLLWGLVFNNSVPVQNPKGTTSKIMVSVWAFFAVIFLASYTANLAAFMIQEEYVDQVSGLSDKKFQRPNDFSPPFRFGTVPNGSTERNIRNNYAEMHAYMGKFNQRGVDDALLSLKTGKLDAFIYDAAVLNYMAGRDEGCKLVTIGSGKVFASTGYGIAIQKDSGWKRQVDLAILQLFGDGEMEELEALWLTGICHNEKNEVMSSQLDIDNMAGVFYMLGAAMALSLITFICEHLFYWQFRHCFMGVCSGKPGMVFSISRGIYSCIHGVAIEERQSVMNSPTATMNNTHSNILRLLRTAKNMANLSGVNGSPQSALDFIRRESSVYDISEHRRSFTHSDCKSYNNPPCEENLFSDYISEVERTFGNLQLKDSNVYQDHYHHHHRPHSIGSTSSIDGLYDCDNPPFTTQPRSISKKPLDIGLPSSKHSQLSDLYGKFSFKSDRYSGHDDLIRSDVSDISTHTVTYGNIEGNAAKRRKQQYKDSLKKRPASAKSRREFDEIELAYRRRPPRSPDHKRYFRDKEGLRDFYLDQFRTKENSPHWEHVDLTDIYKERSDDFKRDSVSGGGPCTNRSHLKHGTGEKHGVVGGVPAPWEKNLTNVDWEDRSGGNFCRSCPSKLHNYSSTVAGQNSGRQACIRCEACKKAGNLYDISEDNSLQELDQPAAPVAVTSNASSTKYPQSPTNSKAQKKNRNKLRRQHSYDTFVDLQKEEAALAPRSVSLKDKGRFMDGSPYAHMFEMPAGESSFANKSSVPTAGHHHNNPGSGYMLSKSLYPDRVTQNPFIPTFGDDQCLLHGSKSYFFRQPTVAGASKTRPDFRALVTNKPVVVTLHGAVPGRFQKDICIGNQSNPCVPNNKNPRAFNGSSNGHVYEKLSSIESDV
The target of assay [2] is T2, Glutamate receptor ionotropic, NMDA 2C (Rattus norvegicus, UniProt P35439+Q00961). Description: Compound was tested in vitro for inhibition of NMDA response at cloned NR1A/2C receptor expressed in Xenopus oocytes. Format: cell-based, frog, Oocyte.
The target in assay [3] is Glutamate NMDA receptor; Grin1/Grin2a (Rattus norvegicus, UniProt P35439+Q00959). The assay can be described thus: Compound was tested in vitro for inhibition of NMDA response at cloned NR1A/2A receptor expressed in Xenopus oocytes. Format: cell-based, frog, Oocyte.
A further assay has as its system Rattus norvegicus. Description: Compound was tested in vivo for potentiation of L-DOPA effect in 6-hydroxydopamine-lesioned rat when administered per orally. It is filed as functional. The settings on record: po, read-out: MED.
Assay [4] concerns the target T1, Glutamate NMDA receptor; Grin1/Grin2b. The assay can be described thus: The compound was tested in vitro for activity against NR1A/2B sub type of NMDA receptor. Further details: species or system frog.
Assay [5] addresses T2, Glutamate receptor ionotropic, NMDA 2C. Description: The compound was tested in vitro for activity against NR1A/2C sub type of NMDA receptor. Further details: species or system frog.

T2 sequence (Q00961 whole entry, one chain of several): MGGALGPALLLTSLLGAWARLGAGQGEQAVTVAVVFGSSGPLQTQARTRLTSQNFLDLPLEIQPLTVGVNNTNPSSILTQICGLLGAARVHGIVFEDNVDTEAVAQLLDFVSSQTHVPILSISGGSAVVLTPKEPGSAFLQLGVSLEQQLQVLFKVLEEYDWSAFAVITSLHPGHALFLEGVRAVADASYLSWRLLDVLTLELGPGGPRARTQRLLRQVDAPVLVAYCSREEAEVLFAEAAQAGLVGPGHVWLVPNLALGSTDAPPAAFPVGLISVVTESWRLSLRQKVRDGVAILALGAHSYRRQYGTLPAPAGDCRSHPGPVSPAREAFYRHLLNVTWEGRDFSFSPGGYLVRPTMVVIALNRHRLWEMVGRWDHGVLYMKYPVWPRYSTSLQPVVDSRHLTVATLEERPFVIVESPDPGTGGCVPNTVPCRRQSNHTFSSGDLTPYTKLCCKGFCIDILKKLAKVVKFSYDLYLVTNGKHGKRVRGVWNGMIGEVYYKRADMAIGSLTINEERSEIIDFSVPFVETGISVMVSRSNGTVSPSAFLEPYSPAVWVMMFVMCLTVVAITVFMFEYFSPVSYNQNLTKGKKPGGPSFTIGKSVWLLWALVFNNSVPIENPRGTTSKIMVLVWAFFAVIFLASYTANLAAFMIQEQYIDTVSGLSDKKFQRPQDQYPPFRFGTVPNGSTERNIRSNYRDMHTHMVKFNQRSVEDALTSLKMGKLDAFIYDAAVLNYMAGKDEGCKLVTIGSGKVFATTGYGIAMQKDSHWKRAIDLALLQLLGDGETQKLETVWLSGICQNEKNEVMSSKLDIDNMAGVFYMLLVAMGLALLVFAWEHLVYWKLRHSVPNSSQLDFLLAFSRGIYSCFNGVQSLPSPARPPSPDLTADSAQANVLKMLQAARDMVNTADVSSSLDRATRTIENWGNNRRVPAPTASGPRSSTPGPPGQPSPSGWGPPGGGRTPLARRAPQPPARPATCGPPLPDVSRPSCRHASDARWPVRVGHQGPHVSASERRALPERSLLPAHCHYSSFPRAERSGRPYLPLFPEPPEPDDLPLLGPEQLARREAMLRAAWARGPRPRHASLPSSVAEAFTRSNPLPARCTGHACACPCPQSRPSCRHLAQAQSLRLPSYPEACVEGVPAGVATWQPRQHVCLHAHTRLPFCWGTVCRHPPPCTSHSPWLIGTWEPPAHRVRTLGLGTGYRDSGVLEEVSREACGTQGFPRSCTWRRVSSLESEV
Sequence of Glutamate NMDA receptor; Grin1/Grin2a (Q00959 whole entry, looked up, other chains not shown): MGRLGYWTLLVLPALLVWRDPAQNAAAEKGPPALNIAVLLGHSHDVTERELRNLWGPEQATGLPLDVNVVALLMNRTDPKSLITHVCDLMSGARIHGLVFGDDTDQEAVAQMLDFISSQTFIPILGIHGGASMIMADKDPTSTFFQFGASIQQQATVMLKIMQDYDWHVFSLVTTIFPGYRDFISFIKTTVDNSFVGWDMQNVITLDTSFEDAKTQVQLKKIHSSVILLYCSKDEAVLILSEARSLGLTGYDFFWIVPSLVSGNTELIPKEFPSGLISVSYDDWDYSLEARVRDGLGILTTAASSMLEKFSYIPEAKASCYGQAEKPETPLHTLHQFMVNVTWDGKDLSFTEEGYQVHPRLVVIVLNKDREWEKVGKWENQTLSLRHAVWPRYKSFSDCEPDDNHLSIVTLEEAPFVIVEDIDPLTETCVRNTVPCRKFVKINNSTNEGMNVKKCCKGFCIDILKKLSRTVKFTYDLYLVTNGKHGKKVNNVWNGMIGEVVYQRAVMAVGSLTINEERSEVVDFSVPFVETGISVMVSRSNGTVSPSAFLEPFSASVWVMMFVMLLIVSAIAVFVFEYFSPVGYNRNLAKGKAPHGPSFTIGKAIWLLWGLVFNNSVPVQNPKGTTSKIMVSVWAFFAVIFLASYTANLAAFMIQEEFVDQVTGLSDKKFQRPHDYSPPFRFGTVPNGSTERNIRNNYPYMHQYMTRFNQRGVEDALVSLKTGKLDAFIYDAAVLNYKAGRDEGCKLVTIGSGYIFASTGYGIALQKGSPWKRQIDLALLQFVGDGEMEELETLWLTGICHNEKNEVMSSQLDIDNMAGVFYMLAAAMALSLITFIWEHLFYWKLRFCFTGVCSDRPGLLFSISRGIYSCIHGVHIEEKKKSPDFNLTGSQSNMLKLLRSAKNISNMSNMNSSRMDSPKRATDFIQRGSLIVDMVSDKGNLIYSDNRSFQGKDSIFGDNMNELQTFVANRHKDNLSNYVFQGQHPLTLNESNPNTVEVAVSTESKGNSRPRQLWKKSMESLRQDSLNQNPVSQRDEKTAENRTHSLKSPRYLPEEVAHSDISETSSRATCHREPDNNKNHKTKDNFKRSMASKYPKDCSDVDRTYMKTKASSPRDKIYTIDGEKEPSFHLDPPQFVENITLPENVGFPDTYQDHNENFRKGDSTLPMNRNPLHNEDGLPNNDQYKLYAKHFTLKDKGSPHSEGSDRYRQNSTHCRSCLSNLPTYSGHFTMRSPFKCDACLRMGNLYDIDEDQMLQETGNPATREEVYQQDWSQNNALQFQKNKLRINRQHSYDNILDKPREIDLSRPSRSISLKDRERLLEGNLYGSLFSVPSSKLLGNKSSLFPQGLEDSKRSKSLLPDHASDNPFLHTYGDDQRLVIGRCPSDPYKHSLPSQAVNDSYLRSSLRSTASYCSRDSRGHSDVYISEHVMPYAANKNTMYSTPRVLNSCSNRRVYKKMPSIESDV

`OC1(c2ccccc2)CCN(CCC#Cc2c[nH]cn2)CC1`: the 50% inhibitory concentration (IC50) in assay [1] came out at 3.5 µM; in assay [2], 36 µM; in assay [3], 8.4 µM.
In the case of `C(#Cc1cn[nH]c1)CCN1CCC(Cc2ccccc2)CC1`, the values for the IC50 in assay [1], in assay [2] and in assay [3] were 0.074 µM, more than 100 µM and 67 µM, respectively. Also, the minimal effective dose with Rattus norvegicus was 30 mg/kg.
For `Fc1ccc(CC2CCN(CCC#Cc3c[nH]cn3)CC2)cc1`, in that order: 0.05 µM, more than 100 µM, 40 µM and more than 10 mg/kg.
For `OC1(Cc2ccccc2)CCN(CCC#Cc2c[nH]cn2)CC1`, in that order: 0.22 µM, more than 100 µM, more than 100 µM and more than 10 mg/kg.
For `C(#Cc1cnc[nH]1)CCN1CCC(Cc2ccccc2)CC1`, the half-maximal inhibitory concentration (IC50) in assay [1] was 0.037 µM; in assay [2], 70 µM; in assay [3], 53 µM. In the assay with Rattus norvegicus, the minimal effective dose amounted to 3 mg/kg.
Consider `Cc1ccc(CC2CCN(CCC#Cc3c[nH]cn3)CC2)cc1`, for which the IC50 in assay [1] stood at 0.02 µM; in assay [2] it was 38 µM; in assay [3], 16 µM. The minimal effective dose with Rattus norvegicus was 10 mg/kg.
`C(#Cc1cnc[nH]1)CN1CCC(Cc2ccccc2)CC1`: the half-inhibitory concentration (IC50) in assay [1] stood at 0.12 µM; in assay [2] it was 34 µM; in assay [3], 38 µM. Moreover, in the assay with Rattus norvegicus, the minimal effective dose was found to be 10 mg/kg.
`C(#Cc1cn[nH]c1)CN1CCC(Cc2ccccc2)CC1`: the IC50 was 0.82 µM in assay [4], more than 100 µM in assay [5] and more than 100 µM in assay [3].
Regarding `C(#Cc1cc[nH]c1)CN1CCC(Cc2ccccc2)CC1`, the IC50 in assay [1] amounted to 1.1 µM; in assay [2] it was 56 µM; in assay [3], 53 µM.
As to `Clc1ccc(CC2CCN(CCC#Cc3cnc[nH]3)CC2)cc1`, the figures for the half-inhibitory concentration (IC50) in assay [1], in assay [2] and in assay [3] were 0.028 µM, 80 µM and 26 µM, respectively. Moreover, in the assay with Rattus norvegicus, the minimal effective dose worked out at 10 mg/kg.
The corresponding values for `C(#Cc1cc[nH]c1)CCN1CCC(Cc2ccccc2)CC1` are 0.19 µM, more than 100 µM, 51 µM and 30 mg/kg.
`C(#Cc1cnc[nH]1)CCN1CCC(c2ccccc2)CC1`: the values for the half-maximal inhibitory concentration (IC50) in assay [1], in assay [2] and in assay [3] were 0.81 µM, 5 µM and 1.4 µM, respectively.
